SMILES strings stand for the structures.

Assay in all cases: Post-emergence efficacy, glasshouse pot test
Common to all, as to format: in vivo

For experiment [1], the system named is Amaranthus palmeri (AMAPA). Particulars: 312 h, Application rate 500 g/Ha, post-emergence spray, evaluated after 13 days, read-out: Post-emergence efficacy AMAPA (100=total damage to plant; 0=no damage to plant). Here is the method:
(§1) Seeds of a variety of test species were sown in standard soil in pots. After cultivation for 14 days (post-emergence) under controlled conditions in a glasshouse (at 24/16° C., day/night; 14 hours light; 65% humidity), the plants were sprayed with an aqueous spray solution derived from the dissolution of the technical active ingredient formula (I) in a small amount of acetone and a special solvent and emulsifier mixture referred to as IF50 (11.12% Emulsogen EL360 TM+44.44% N-methylpyrrolidone+44.44% Dowanol DPM glycol ether), to create a 50 g/l solution which was then diluted to required concentration using 0.25% or 1% Empicol ESC70 (Sodium lauryl ether sulphate)+1% ammonium sulphate as diluent.
(§2) The test plants were then grown in a glasshouse under controlled conditions (at 24/16° C., day/night; 14 hours light; 65% humidity) and watered twice daily. After 13 days the test was evaluated (100=total damage to plant; 0=no damage to plant).
(§3) Ipomoea hederacea (IPOHE), Euphorbia heterophylla (EPHHL), Chenopodium album (CHEAL), Amaranthus palmeri (AMAPA), Lolium perenne (LOLPE), Digitaria sanguinalis (DIGSA), Eleusine indica (ELEIN), Echinochloa crus-galli (ECHCG), Setaria faberi (SETFA)

Experiment [2] concerns Chenopodium album (CHEAL). Particulars: 312 h, Application rate 500 g/Ha, post-emergence spray, evaluated after 13 days, read-out: Post-emergence efficacy CHEAL (100=total damage to plant; 0=no damage to plant). Here is the method: as §1, §2, §3
Experiment [3] relates to Digitaria sanguinalis (DIGSA). Particulars: 312 h, Application rate 500 g/Ha, post-emergence spray, evaluated after 13 days, read-out: Post-emergence efficacy DIGSA (100=total damage to plant; 0=no damage to plant). As to the method:
as §1, §2, §3

In experiment [4] the test system is Echinochloa crus-galli (ECHCG). Particulars: 312 h, Application rate 500 g/Ha, post-emergence spray, evaluated after 13 days, read-out: Post-emergence efficacy ECHCG (100=total damage to plant; 0=no damage to plant). Here is the method: as §1, §2, §3
The test system of the next experiment is Eleusine indica (ELEIN). Particulars: 312 h, Application rate 500 g/Ha, post-emergence spray, evaluated after 13 days, read-out: Post-emergence efficacy ELEIN (100=total damage to plant; 0=no damage to plant). As to the method:
as §1, §2, §3

In experiment [5] the test system is Euphorbia heterophylla (EPHHL). Particulars: 312 h, Application rate 500 g/Ha, post-emergence spray, evaluated after 13 days, read-out: Post-emergence efficacy EPHHL (100=total damage to plant; 0=no damage to plant). As to the method: as §1, §2, §3
The test system of experiment [6] is Ipomoea hederacea (IPOHE). Particulars: 312 h, Application rate 500 g/Ha, post-emergence spray, evaluated after 13 days, read-out: Post-emergence efficacy IPOHE (100=total damage to plant; 0=no damage to plant). As to the method: as §1, §2, §3
The next experiment concerns Lolium perenne (LOLPE). Particulars: 312 h, Application rate 500 g/Ha, post-emergence spray, evaluated after 13 days, read-out: Post-emergence efficacy LOLPE (100=total damage to plant; 0=no damage to plant). Here is the method:
as §1, §2, §3

The subject of the next experiment is Setaria faberi (SETFA). Particulars: 312 h, Application rate 500 g/Ha, post-emergence spray, evaluated after 13 days, read-out: Post-emergence efficacy SETFA (100=total damage to plant; 0=no damage to plant). Here is the method:
as §1, §2, §3

Take `CC(C)(NC(=O)CC[n+]1ccc(-c2nccs2)cn1)C(=O)O` [Compound A15]: the pest or weed control at 500 g/ha in experiment [1] was found to be 100%; in experiment [2], 100%; in experiment [3] it was 100%; in [4], 100%; in the experiment with Eleusine indica (ELEIN), 90%; in experiment [5] it was 50%. Also, the pest or weed control at 500 g/ha in experiment [6] was found to be 40%; in the experiment on Lolium perenne (LOLPE), 30%; with Setaria faberi (SETFA), 100%.

With `CC(C)(NS(=O)(=O)CC[n+]1ccc(-c2nccs2)cn1)C(=O)O` [Compound A18], the pest or weed control at 500 g/ha was found to be 30% in [1]; 50% in [2]; 0% in [3]; 10% in experiment [4]; 0% with Eleusine indica (ELEIN); 10% in experiment [5]. Besides, the figures for the pest or weed control at 500 g/ha (in experiment [6]; in the experiment on Lolium perenne (LOLPE); with Setaria faberi (SETFA)) were 0%, 0% and 20%, respectively.

Turning to `O=C(O)CNC(=O)CC[n+]1ccc(-c2ncco2)cn1` [Compound A13], the pest or weed control at 500 g/ha in experiment [1] turned out to be 100%; in experiment [2], 100%; in experiment [3], 100%; in [4], 100%; with Eleusine indica (ELEIN), 90%; in [5] it was 90%. Besides, the pest or weed control at 500 g/ha in experiment [6] is 60%; in the experiment on Lolium perenne (LOLPE), 60%; with Setaria faberi (SETFA), 100%.

In the case of `CC(NC(=O)CC[n+]1ccc(-c2nccs2)cn1)C(=O)O` (stereo not drawn) [Compound A16], the pest or weed control at 500 g/ha was determined as 100% in experiment [1]; 90% in experiment [2]; 100% in experiment [3]; 100% in [4]; 100% with Eleusine indica (ELEIN); 40% in experiment [5]. Moreover, the pest or weed control at 500 g/ha amounted to 20% in experiment [6], 60% in the experiment on Lolium perenne (LOLPE) and 100% in the experiment on Setaria faberi (SETFA).

As to `O=C(C[n+]1ccc(-c2ncsn2)cn1)NC1(C(=O)O)CC1` [Compound A24], the pest or weed control at 500 g/ha in [1] turned out to be 100%; in experiment [2], 90%; in experiment [3], 100%; in [4], 80%; in the experiment on Eleusine indica (ELEIN), 70%; in experiment [5], 90%. Moreover, the values for the pest or weed control at 500 g/ha (in experiment [6]; in the experiment with Lolium perenne (LOLPE); with Setaria faberi (SETFA)) were 90%, 50% and 80%, respectively.

For the compound `O=C(O)CNC(=O)C[n+]1ccc(-c2ncsn2)cn1` [Compound A23], the pest or weed control at 500 g/ha in experiment [1] was determined as 100%; in experiment [2], 100%; in experiment [3], 40%; in experiment [4], 50%; with Eleusine indica (ELEIN), 70%; in experiment [5], 90%. Further, the pest or weed control at 500 g/ha in experiment [6] worked out at 90%; with Lolium perenne (LOLPE), 50%; in the experiment with Setaria faberi (SETFA), 80%.

As to `CN(CC(=O)O)C(=O)C[n+]1ccc(-c2ncn(C)n2)cn1` [Compound A3], the pest or weed control at 500 g/ha in experiment [1] was 100%; in experiment [2], 100%; in [3], 100%; in [4], 100%; in the experiment on Eleusine indica (ELEIN) it was 90%; in experiment [5], 50%. Besides, the values for the pest or weed control at 500 g/ha (in experiment [6]; with Lolium perenne (LOLPE); with Setaria faberi (SETFA)) were 40%, 30% and 100%, respectively.

As to `CC(C)(NC(=O)C[n+]1ccc(-c2ncsn2)cn1)C(=O)O` [Compound A21], the pest or weed control at 500 g/ha in [1] came out at 100%; in [2] it was 90%; in experiment [3] it was 30%; in experiment [4], 30%; in the experiment on Eleusine indica (ELEIN) it was 40%; in experiment [5], 80%. For the same compound, the results for the pest or weed control at 500 g/ha (in experiment [6]; with Lolium perenne (LOLPE); with Setaria faberi (SETFA)) were 70%, 40% and 100%, respectively.

As for `Cn1cnc(-c2cc[n+](CSCC(=O)O)nc2)n1` [Compound A8, 2-[[4-(1-methyl-1,2,4-triazol-3-yl)pyridazin-1-ium-1-yl]methylsulfanyl]acetic acid chloride], the pest or weed control at 500 g/ha turned out to be 100% in [1]; 90% in experiment [2]; 100% in [3]; 100% in experiment [4]; 100% in the experiment with Eleusine indica (ELEIN); 70% in experiment [5]. Further, the pest or weed control at 500 g/ha came out at 30% in experiment [6], 70% in the experiment on Lolium perenne (LOLPE) and 100% in the experiment with Setaria faberi (SETFA).

Turning to `O=C(O)CNC(=O)CC[n+]1ccc(-c2nccs2)cn1` [Compound A14], the pest or weed control at 500 g/ha in experiment [1] amounted to 100%; in experiment [2], 90%; in experiment [3], 100%; in experiment [4] it was 100%; in the experiment on Eleusine indica (ELEIN), 100%; in [5], 100%. The values for the pest or weed control at 500 g/ha (in experiment [6]; in the experiment with Lolium perenne (LOLPE); in the experiment on Setaria faberi (SETFA)) were 70%, 50% and 90%, respectively.

Turning to `CC(NS(=O)(=O)CC[n+]1ccc(-c2ncsn2)cn1)C(=O)O` (stereo not drawn) [Compound A22], the pest or weed control at 500 g/ha in experiment [1] worked out at 100%; in experiment [2], 50%; in experiment [3], 100%; in experiment [4], 80%; in the experiment on Eleusine indica (ELEIN), 100%; in experiment [5] it was 20%. Also, the pest or weed control at 500 g/ha was 50% in experiment [6], 60% with Lolium perenne (LOLPE) and 100% in the experiment on Setaria faberi (SETFA).

Take `CC(NC(=O)CC[n+]1ccc(-c2ncsn2)cn1)C(=O)O` (stereo not drawn) [Compound A20]: the pest or weed control at 500 g/ha in experiment [1] came to 100%; in experiment [2], 100%; in [3] it was 100%; in [4] it was 100%; in the experiment with Eleusine indica (ELEIN), 90%; in experiment [5], 80%. Moreover, the values for the pest or weed control at 500 g/ha (in experiment [6]; in the experiment on Lolium perenne (LOLPE); in the experiment with Setaria faberi (SETFA)) were 60%, 90% and 100%, respectively.

Regarding `CC(NC(=O)C[n+]1ccc(-c2ncsn2)cn1)C(=O)O` (stereo not drawn) [Compound A19], the pest or weed control at 500 g/ha was determined as 100% in [1]; 90% in experiment [2]; 80% in [3]; 80% in [4]; 80% in the experiment with Eleusine indica (ELEIN); 90% in experiment [5]. In addition, the pest or weed control at 500 g/ha in experiment [6] came to 50%; with Lolium perenne (LOLPE) it was 40%; with Setaria faberi (SETFA), 90%.

In the case of `CC(NC(=O)C[n+]1ccc(-c2nccs2)cn1)C(=O)O` (stereo not drawn) [Compound A10], the pest or weed control at 500 g/ha in [1] is 100%; in [2] it was 90%; in experiment [3] it was 40%; in experiment [4], 60%; in the experiment with Eleusine indica (ELEIN) it was 40%; in [5] it was 90%. Further, the pest or weed control at 500 g/ha in [6] turned out to be 60%; in the experiment on Lolium perenne (LOLPE), 20%; with Setaria faberi (SETFA), 40%.

These data come from patent US20220112175A1, “PYRIDAZINES HERBICIDAL COMPOUNDS” (SYNGENTA CROP PROTECTION AG, priority 2019, published 2022).
